These results are taken from article PMC7508162 (Frontiers in Pharmacology, 2020).

One series has as its target T1, NPP4 (Homo sapiens, UniProt Q9Y6X5).
T1 construct: 1.4 µg of NPP4 (soluble form expressed in insect cells and purified); made in house; host or cells: Sf9 insect cells
T1 sequence (Q9Y6X5 16-407 limits assumed): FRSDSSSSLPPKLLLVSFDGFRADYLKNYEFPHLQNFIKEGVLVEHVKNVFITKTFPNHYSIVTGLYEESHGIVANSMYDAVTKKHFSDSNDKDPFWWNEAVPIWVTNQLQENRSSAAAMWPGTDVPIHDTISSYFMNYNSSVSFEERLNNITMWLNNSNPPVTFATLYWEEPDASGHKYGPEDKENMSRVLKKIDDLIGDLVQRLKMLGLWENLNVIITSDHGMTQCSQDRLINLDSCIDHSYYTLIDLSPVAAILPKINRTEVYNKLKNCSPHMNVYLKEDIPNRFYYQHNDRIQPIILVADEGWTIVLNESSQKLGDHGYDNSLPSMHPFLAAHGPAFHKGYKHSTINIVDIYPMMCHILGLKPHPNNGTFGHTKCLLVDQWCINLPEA
The experiment in a line: NPP4 assay with AP4A as substrate, luciferin-luciferase detection. The series is classed as biochemical. To be noted: for inhibition at 10 µM: 10 µM test compound; for Ki: 20 µM AP4A, read-out: Ki ± SEM. The method, then: Soluble NPP4 was expressed in Sf9 insect cells as recently described in detail ([Lopez et al., 2020]). Diadenosine tetraphosphate (AP4A) was employed as a substrate which is cleaved by NPP4 to ATP and AMP. The reaction product ATP was quantified by luciferin-luciferase reaction ([Lopez et al., 2020]). A mixture of 1.4 µg of NPP4 (soluble form expressed in insect cells and purified) ([Lopez et al., 2020]), 10 µM of test compound, 2 % DMSO, and 20 µM of AP4A as a substrate were incubated for 60 min at 37°C with gentle shaking. The reaction was terminated by heating at 90°C for 5 min, and after cooling down on ice, 50 µl of D-luciferin dissolved in buffer (300 mM Tris-HCl, 15 mM MgCl2, 100 ng D-luciferin, pH 7.8) and 50 µl of luciferase (50 ng dissolved in H2O) were added. The firefly luciferase reacts with D-luciferin in the presence of ATP produced by NPP4. The resulting luminescence was measured between 10–14 min at 560 nm using a BMG PheraStar FS plate reader (BMG Labtech GmbH, Ortenberg, Germany).

Series [1] in a line: Metabolic stability in human liver microsomes. Type of series: in vitro ADME. The conditions noted are these: both sexes; human liver microsomes 0.5 mg/mL; compound 1 μM. The method, then:
(§1) The experiments were performed by Pharmacelsus, Saarbrücken, Germany (https://www.pharmacelsus.com/services/in-vitro-adme/) using human and mouse liver microsomes (0.5 mg/mL, mixed gender, pooled). Compounds were tested at a concentration of 1 μM. Data points represent means of two separate experiments performed in duplicates.
In general terms: Liver microsomes are a subcellular fraction often used to study metabolism.

Series [2] is described as follows: Metabolic stability in mouse liver microsomes. Type of series: in vitro ADME. The conditions noted are these: both sexes; mouse liver microsomes 0.5 mg/mL; compound 1 μM. The method, then: as §1
Series [3] is described as follows: Chemical stability of stock solutions by LC/ESI-MS analysis. Type of series: physicochemical. The method, then:
To ensure that degradation was caused by microsomal enzymes and not due to chemical instability, stock solutions were analyzed by LC/ESI-MS analysis, and were in all cases found to be stable. […] Nevertheless, they represent useful tool compounds for in vitro studies.

In a further series the target is T2, NTPDase3 (Homo sapiens, UniProt O75355).
T2 sequence (O75355 1-529): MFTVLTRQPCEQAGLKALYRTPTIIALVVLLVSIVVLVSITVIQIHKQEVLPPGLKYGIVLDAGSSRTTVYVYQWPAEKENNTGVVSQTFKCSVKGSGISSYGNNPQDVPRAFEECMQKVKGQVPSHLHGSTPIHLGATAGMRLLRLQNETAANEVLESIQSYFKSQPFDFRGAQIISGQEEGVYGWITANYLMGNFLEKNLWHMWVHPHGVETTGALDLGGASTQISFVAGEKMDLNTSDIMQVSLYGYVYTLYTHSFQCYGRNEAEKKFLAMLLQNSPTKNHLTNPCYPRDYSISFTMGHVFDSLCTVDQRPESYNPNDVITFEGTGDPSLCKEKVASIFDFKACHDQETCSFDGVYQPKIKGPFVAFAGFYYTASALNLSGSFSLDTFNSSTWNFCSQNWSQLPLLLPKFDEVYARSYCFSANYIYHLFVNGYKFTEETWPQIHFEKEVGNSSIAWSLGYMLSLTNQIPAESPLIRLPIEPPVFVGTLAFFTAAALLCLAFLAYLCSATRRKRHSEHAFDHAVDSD
The experiment in a line: Malachite green assay for NTPDase3. Also noted: expressed in transfected cells; host or cells: COS-7 cell membrane preparations. Type of series: biochemical. To be noted: ATP 50 µM, recombinant COS-7 cell membrane preparation, read-out: Ki ± SEM. The method, then: The enzymatic activity assay was determined essentially as previously described ([Cogan et al., 1999]) with a few adaptations. The reaction buffer contained 10 mM HEPES, 2 mM CaCl2, 1 mM MgCl2, pH 7.4 in a final volume of 50 μl in transparent 96-well half area plates. For CD39 (NTPDase1), we made use of human umbilical cord membranes preparations which express high levels of the enzyme. For the other human NTPDase isoenzymes, we had to resort to recombinant expression. Human umbilical cord membrane preparations (250 ng) natively expressing high amounts of CD39, or the respective recombinant COS-7 cell membrane preparations expressing the appropriate NTPDase isoenzyme (ca. 100 ng of protein depending on enzyme activity) ([Sévigny et al., 1997]; [Lecka et al., 2013]) with or without inhibitor were preincubated at 37°C and gentle shaking (Eppendorf Thermomixer comfort at 500 rpm) for 5 min. The amount of enzyme preparation was adjusted to ensure 10–20% of substrate conversion. […] ([Kukulski et al., 2005]). After 15 min of incubation at 37°C with gentle shaking, the reaction was stopped by adding the detection reagents (20 µl malachite green solution, 0.6 mM, and 30 µl ammonium molybdate solution, 20 mM, in sulfuric acid, 1.5 M). The released (inorganic) phosphate was quantified after 20 min of gentle shaking at 25°C by measuring the absorption of the malachite green-phosphomolybdate complex at 600 nm using a BMG PheraStar FS plate reader (BMG Labtech GmbH, Ortenberg, Germany). The corrected absorption was calculated by subtracting the absorption of the negative control samples, which were incubated with denatured enzyme (90°C, 15 min), and the inhibition was calculated as follows:
% Inhibition=(B−T)/B*100% […]
Full concentration-inhibition curves were determined with inhibitor concentrations ranging from 0.1 to 300 µM in the presence of 2% DMSO. Three independent experiments were performed (n = 3) and curves were calculated by the GraphPad Prism 8 software. The Ki value was calculated using the Cheng-Prusoff equation for competitive inhibitors: […]

Some results are limits rather than exact numbers.

The inhibition is the relative decrease from the control value, in per cent. As usually defined, the Ki is the equilibrium dissociation constant of an inhibitor or competing ligand from its target. As a reminder, the half-life is how long it takes for the measured level to halve. A low value points to rapid decline. As to `CCCCSc1nc2c(N)ncnc2n1[C@@H]1O[C@H](COP(=O)(O)OP(=O)(O)C(Br)(Br)P(=O)(O)O)[C@@H](O)[C@H]1O` [Compound 31, (((((((2R,3S,4R,5R)-5-(6-Amino-8-(butylthio)-9H-purin-9-yl)-3,4-dihydroxytetrahydrofuran-2-yl)methoxy)(hydroxy)-phosphoryl)oxy)(hydroxy)phosphoryl)dibromomethyl)-phosphonic Acid], the inhibition at 10 µM against NPP4 amounted to 2%. In addition, the Ki on NPP4 was greater than 10 µM; on NTPDase3, 1.54 ± 0.34 µM. In addition, the half-life at 1 μM in series [1] and in series [2] was less than 1 min throughout. The “stability of stock solutions” value in series [3] was “stable”.

On to `CCN(CC)c1ncnc2c1ncn2[C@@H]1O[C@H](COP(=O)(O)OP(=O)(O)C(Br)(Br)P(=O)(O)O)[C@@H](O)[C@H]1O` [ARL67156, (Dibromo((((((2R,3S,4R,5R)-5-(6-(diethylamino)-9H-purin-9-yl)-3,4-dihydroxytetrahydrofuran-2-yl)methoxy)-(hydroxy)-phosphoryl)oxy)(hydroxy)phosphoryl)methyl)-phosphonic Acid, reference compound], for which the inhibition at 10 µM at NPP4 was -1%. Besides, the Ki at NPP4 is greater than 10 µM; at NTPDase3 it was 7.94 ± 1.36 µM. Also, the half-life at 1 μM in series [1] and in series [2] was less than 1 min each time. In addition, in series [3], the “stability of stock solutions” value was “stable”.

For `CCCCNc1nc2c(NC)ncnc2n1[C@@H]1O[C@H](COP(=O)(O)OP(=O)(O)C(Br)(Br)P(=O)(O)O)[C@@H](O)[C@H]1O` [Compound 33, (Dibromo((((((2R,3S,4R,5R)-5-(8-(butylamino)-6-(methylamino)-9H-purin-9-yl)-3,4-dihydroxy-tetrahydrofuran-2-yl)methoxy)(hydroxy)phosphoryl)oxy)-(hydroxy)phosphoryl)methyl)-phosphonic Acid], the inhibition at 10 µM against NPP4 was found to be 4%. Also, the Ki at NPP4 is greater than 10 µM; at NTPDase3 it was 7.8 ± 1.34 µM. In addition, the half-life at 1 μM in series [1] and in series [2] was less than 1 min each time. In addition, the “stability of stock solutions” value in series [3] is “stable”.
